# Entries after “also recorded” stand apart in the source; their conditions may differ.
# Experiments:
# [1] = molecular target: T1, recombinant rat brain FTase (Rattus norvegicus, UniProt Q02293+Q04631); experiment: Inhibition of FTase-catalyzed transfer of [^3 H]farnesyl from [^3 H]FPP to H-Ras; type: biochemical
# T1 construct: 6xHis (N); made in house; host or cells: Sf9 insect cells (baculovirus)
# Description: FIG. 2. Differential Inhibition of Farnesyltransferase and CAAX Geranylgeranyltransferase by AGPP. The assay mixtures contained (in a final volume of 25 μl) various components as described in "Experimental Procedures". After incubation for 15 min at 37° C., the amount of [^3 H]prenyl group transferred to the appropriate protein substrate [H-Ras (CVLS) for FTase and H-Ras (CVLL) for CAAX GGTase] was measured by precipitation with ethanol-HCl. The assays contained 10 ng recombinant rat FTase, 5 μM H-Ras, and 0.6 μM [^3 H]FPP (33,000 dpm/pmol) or 100 ng recombinant rat CAAX GGTase, 5 μM H-Ras CVLL, and 1 μM [^3 H]GGPP (33,000 dpm/pmol) and the indicated concentration of unlabeled AGPP. The 100% of control values were 1.1 and 5.5 pmol of [^3 H]farnesyl or [^3 H]geranylgeranyl transferred per tube. Each value is the average of duplicate incubations and is representative of two separate experiments.
# FIG. 3. Inhibition of Farnesyltransferase by AGPP and I-AGPP. The enzymatic activity was measured in the presence of the various concentrations of either AGPP or I-AGPP as described in […]. The 100% control values were 1.9 and 2 pmol. Each value is the average of duplicate incubations and is representative of three separate experiments.
# (§1) Assay for Farnesyltransferase Activity--Farnesyltransferase activity was assayed by measuring the amount of [^3 H]farnesyl or [^3 H]anilinogeranyl transferred from [^3 H]FPP or [^3 H]AGPP to recombinant p21^H-ras, as described previously (31). Unless otherwise stated, each reaction mixture contained the following components in a final volume of 25 μl: 50 mM Tris (pH 7.4), 20 mM KCl, 0.2% octyl β-glucopyranoside, 1 mM dithiothreitol, 10-20 ng recombinant FTase, 5 μM p21^Ha-ras, 3 mM MgCl2, 50 μM ZnCl2, and 0.6 μM [^3 H]FPP (33,000 dpm/pmol; American Radiochemical Co.) or 0.1-5 μM [^3 H]AGPP (37,400 dpm/pmol). Following incubation for the indicated times at 37° C., the amount of [^3 H]prenyl transferred was measured by ethanol-HCl precipitation and filtration on glass fiber filters with modification as previously described (19). A blank value was determined in parallel incubation mixtures containing no enzyme. This blank value was subtracted from each reaction before calculating pmol [^3 H]prenyl transferred.
# Inhibition of Farnesyltransferase by AGPP--AGPP was tested for its ability to inhibit recombinant rat brain FTase activity in vitro. AGPP inhibited FTase in a concentration dependent manner with an IC50 value of 0.6 μM (FIG. 2).
# Kinetic analyses were carried out to investigate the mechanism of FTase inhibition by AGPP. […] The same Km value was observed when the Lineweaver-Burke plot was analyzed under different Ras and AGPP concentrations in the presence of a constant concentration of FPP. […] AGPP inhibition is reversible, since transfer of [^3 H]-FPP by FTase to Ras was restored by isolating the farnesyltransferase by gel filtration chromatography after preincubation in the presence of 50 μM AGPP (data not shown).
# The assays contained 10 ng recombinant rat FTase, 5 μM H-Ras, and 0.6 μM [^3 H]FPP (33,000 dpm/pmol) or 100 ng recombinant rat CAAX GGTase, 5 μM H-Ras CVLL, and 1 μM [^3 H]GGPP (33,000 dpm/pmol) and the indicated concentration of unlabeled AGPP. The 100% of control values were 1.1 and 5.5 pmol of [^3 H]farnesyl or [^3 H]geranylgeranyl transferred per tube.
# [2] = molecular target: FTase (Rattus norvegicus, UniProt Q02293+Q04631); experiment: FTase-catalyzed transfer of labeled FPP analogs to p21^H-ras (substrate assay); type: biochemical; parameters: H-Ras is only the protein substrate; conditions: for transfer to p21^H-ras by FTase, in words: in vitro
# Description: FIG. 4. Transfer of Anilinogeranyl from [^3 H]AGPP to p21^Ha-ras by Farnesyltransferase. (A) Each reaction contained 1 μM [^3 H]AGPP (37,400 dpm/pmol) and 10 ng of recombinant FTase in the absence (triangles) or presence (circles) of 5 μM p21^Ha-ras Duplicate samples were incubated for the indicated times at 37° C., and ethanol-HCl precipitated radioactivity was measures as described under "Experimental Procedures". […] The gel was treated with Amplify solution (Amersham), dried, and exposed to Kodak X-OMAT AR film for 2 days at -70° C. The migration of molecular weight markers placed in a adjacent lane is shown. (B) The AGPP substrate saturation curve for FTase was determined by varying the amount of [^3 H]AGPP in the standard reaction described above. Assays were carried out in duplicate for 30 min at 37° C., and the ethanol-HCl precipitable radioactivity measured. The data is representative of three independent experiments.
# FIG. 5. […] Farnesyltransferase (10 ng) was incubated in a final volume of 25 μl in the presence of 1.0 μM [^3 H]AGPP or [^3 H]FPP and 5 μM wild-type p21^Ha-ras. After incubation for 30 min at 37° C., the amount of [^3 H]prenyl transferred to p21^Ha-ras was determined as described under "Experimental Procedures". Each value is the average of duplicate incubations and is representative of five separate experiments.
# as §1
# The observed inhibition kinetics could be a manifestation of the ability of AGPP to act as an alternative substrate for FTase. To evaluate the potential of AGPP to serve as a substrate of FTase, [^3 H]-AGPP was prepared by a similar route as described above, incorporating tritium with a specific activity of 17 Ci/mmol (synthesis to be reported elsewhere). […] The incorporated radioactivity was detected as a band of the expected molecular weight of farnesylated p21^H-ras on SDS-polyacrylamide gels (FIG. 4A, inset). […] The concentration of [^3 H]AGPP that gave half-maximal reaction velocity was approximately 0.5 μM (FIG. 4B).
# FIG. 5 depicts transfer of unnatural anilinogeranyl lipid from [^3 H]AGPP and transfer of farnesyl lipid from [^3 H]FPP to H-Ras by FTase. Farnesyltransferase (10 ng) was incubated in a final volume of 25 μl in the presence of 1.0 μM [^3 H]AGPP or [^3 H]FPP and 5 μM wild-type H-Ras. After incubation for 30 min. at 37° C., the amount of [^3 H]prenyl transferred to H-Ras was determined by ethanol-HCl precipitation and scintillation counting. Each value is the average of duplicate incubations and is representative of five separate experiments.
smiles,measurement,setting,value
"C/C(=C\COP(=O)(O)OP(=O)(O)O)CC/C=C(\C)CNc1ccccc1 [AGPP, (E,E)-8-Aniline-3,7-dimethyl-2,6-octadiene pyrophosphate]",IC50,"[1]; 0.6 μM [^3 H]FPP, 5 μM H-Ras, 37° C., 15 min",600 nM
same,mechanism of FTase inhibition with respect to Ha-Ras protein,"[1]; constant FPP, various Ras",noncompetitive inhibitor with respect to Ha-Ras protein; also recorded: did not apparently affect the Km value for the substrate protein Ha-Ras
same,mechanism of FTase inhibition with respect to FPP,"[1]; double reciprocal plots, various [^3 H]FPP, constant Ras",competitive inhibitor of FTase with respect to FPP; also recorded: changed the Km value for FPP but does not alter the Vmax; also recorded: potent competitive inhibitor
same,reversibility of FTase inhibition,[1]; gel filtration after preincubation with 50 μM AGPP,reversible
same,"inhibition of FTase, in words","[1]; in vitro, unlabeled compound",competed at essentially the same concentrations
same,"transfer to p21^H-ras by FTase, in words",[2]; 37° C.,transferred efficiently
same,"transfer to p21^H-ras by FTase, in words","[2]; 37° C., listed as [^3 H]-AGPP",kinetics of transfer are identical to those of FPP
same,"transfer to p21^H-ras by FTase, in words","[2]; 37° C., listed as [^3 H]AGPP",time dependent fashion; also recorded: transferred appropriately to p21^H-Ras by FTase
same,transfer to p21^H-ras lacking the CVLS motif,[2]; recombinant p21^H-ras with CVLS removed,eliminated the incorporation of tritium into the protein
same,concentration that gave half-maximal reaction velocity,"[2]; transfer to p21^H-ras, 37° C., 30 min",approximately 0.5 μM
